Results taken from ChEMBL document CHEMBL3046640, “Synthesis and antimicrobial activity of bischalcone derivatives” (2013).
In brackets after ≈: the same amount, converted by molar mass. Activity calls are given as the source filed them. The calls are words filed in the database; no cut-off is given here.

Key:
Assay type in all cases: functional
[1] = system: Escherichia coli; experiment: Antibacterial activity against Escherichia coli ATCC 25922 assessed as growth inhibition after 24 hr by broth dilution method
[2] = system: Staphylococcus aureus; experiment: Antibacterial activity against Staphylococcus aureus ATCC 25923 assessed as growth inhibition after 24 hr by broth dilution method
[3] = system: Pseudomonas aeruginosa; experiment: Antibacterial activity against Pseudomonas aeruginosa ATCC 27853 assessed as growth inhibition at 100 ug/mL after 24 hr by cup-plate method; details: ATCC 27853, 24 h, read-out: DIZ
[4] = system: Pseudomonas aeruginosa; experiment: Antibacterial activity against Pseudomonas aeruginosa ATCC 27853 assessed as growth inhibition after 24 hr by broth dilution method
[5] = system: Aspergillus niger; experiment: Antifungal activity against Aspergillus niger ATCC 16404 assessed as growth inhibition after 48 hr by broth dilution method
[6] = system: Candida albicans; experiment: Antifungal activity against Candida albicans ATCC 10231 assessed as growth inhibition at 100 ug/mL after 3 to 4 days by agar diffusion method; details: read-out: DIZ
[7] = system: Rhizopus arrhizus; experiment: Antifungal activity against Rhizopus oryzae MTCC 262 assessed as growth inhibition at 100 ug/mL after 3 to 4 days by agar diffusion method; details: read-out: DIZ
[8] = system: Rhizopus arrhizus; experiment: Antifungal activity against Rhizopus oryzae MTCC 262 assessed as growth inhibition after 48 hr by broth dilution method
[9] = system: Escherichia coli; experiment: Antibacterial activity against Escherichia coli ATCC 25922 assessed as growth inhibition at 100 ug/mL after 24 hr by cup-plate method; details: ATCC 25922, 24 h, read-out: DIZ
[10] = system: Staphylococcus aureus; experiment: Antibacterial activity against Staphylococcus aureus ATCC 25923 assessed as growth inhibition at 100 ug/mL after 24 hr by cup-plate method; details: ATCC 25923, 24 h, read-out: DIZ
[11] = system: Candida albicans; experiment: Antifungal activity against Candida albicans ATCC 10231 assessed as growth inhibition after 48 hr by broth dilution method
[12] = system: Aspergillus niger; experiment: Antifungal activity against Aspergillus niger ATCC 16404 assessed as growth inhibition at 100 ug/mL after 3 to 4 days by agar diffusion method; details: read-out: DIZ

Row | Structure (SMILES) | MIC [1] | MIC ([2]; ATCC 25923, 24 h) | zone of inhibition at 100 µg/mL [3] | MIC ([4]; ATCC 27853, 24 h) | MIC ([5]; ATCC 16404, 48 h) | zone of inhibition at 100 µg/mL [6] | zone of inhibition at 100 µg/mL [7] | MIC ([8]; MTCC 262, 48 h) | zone of inhibition at 100 µg/mL [9] | zone of inhibition at 100 µg/mL [10] | MIC ([11]; ATCC 10231, 48 h) | zone of inhibition at 100 µg/mL [12] | MIC ([1]; ATCC 25922, 24 h) | MIC [2] | MIC [4] | MIC [5] | MIC [8] | MIC [11]
1 | O=C(/C=C/c1cccc(Cl)c1)c1cc(C(=O)/C=C/c2cccc(Cl)c2)c(O)cc1O | inactive | > 100 µg/mL | 10 mm | 50 µg/mL (≈ 114 µM) | > 100 µg/mL | 10 mm | 10 mm | 50 µg/mL (≈ 114 µM) | < 5 mm | 5 mm | 50 µg/mL (≈ 114 µM) | 5 mm |  |  |  |  |  | 
2 | O=c1cc(-c2ccco2)oc2cc3oc(-c4ccco4)cc(=O)c3cc12 |  | 25 µg/mL (≈ 72.2 µM) | 15 mm | 12.5 µg/mL (≈ 36.1 µM) | 50 µg/mL (≈ 144 µM) | 15 mm | 5 mm | > 100 µg/mL | 15 mm | 15 mm | 12.5 µg/mL (≈ 36.1 µM) | 10 mm | 25 µg/mL (≈ 72.2 µM) |  |  |  |  | 
3 | COc1cc(-c2cc(=O)c3cc4c(=O)cc(-c5cc(OC)c(OC)c(OC)c5)oc4cc3o2)cc(OC)c1OC |  | > 100 µg/mL | 5 mm | > 100 µg/mL | 50 µg/mL (≈ 91.5 µM) | 10 mm | 10 mm | 50 µg/mL (≈ 91.5 µM) | 10 mm | 5 mm | 50 µg/mL (≈ 91.5 µM) | 10 mm | 50 µg/mL (≈ 91.5 µM) |  |  |  |  | 
4 | O=c1cc(-c2cccc(Cl)c2)oc2cc3oc(-c4cccc(Cl)c4)cc(=O)c3cc12 |  | 25 µg/mL (≈ 57.4 µM) | 15 mm | 25 µg/mL (≈ 57.4 µM) | 25 µg/mL (≈ 57.4 µM) | 10 mm | 10 mm | 50 µg/mL (≈ 115 µM) | 10 mm | 15 mm | 50 µg/mL (≈ 115 µM) | 15 mm | 50 µg/mL (≈ 115 µM) |  |  |  |  | 
5 | CC(=O)c1cc(C(C)=O)c(OC(=O)c2ccccc2C)cc1OC(=O)c1ccccc1C | inactive |  | < 5 mm |  |  | < 5 mm | < 5 mm |  | < 5 mm | < 5 mm |  | < 5 mm |  | inactive | inactive | inactive | inactive | inactive
6 | COC1=CC(=O)C[C@@H](C)[C@]12Oc1c(Cl)c(OC)cc(OC)c1C2=O [GRISEOFULVIN] |  |  |  |  | 6.25 µg/mL (≈ 17.7 µM) | > 20 mm | > 20 mm | 6.25 µg/mL (≈ 17.7 µM) |  |  | 6.25 µg/mL (≈ 17.7 µM) | > 20 mm |  |  |  |  |  | 
7 | CCN(CC)c1ccc(/C=C/C(=O)c2cc(C(=O)/C=C/c3ccc(N(CC)CC)cc3)c(OC)cc2OC)cc1 | inactive |  | 5 mm | > 100 µg/mL | > 100 µg/mL | < 5 mm | < 5 mm |  | < 5 mm | < 5 mm |  | 5 mm |  | inactive |  |  | inactive | inactive
8 | Cc1ccccc1-c1cc(=O)c2cc3c(=O)cc(-c4ccccc4C)oc3cc2o1 |  | 50 µg/mL (≈ 127 µM) | 10 mm | 50 µg/mL (≈ 127 µM) | > 100 µg/mL | 10 mm | 5 mm | > 100 µg/mL | 5 mm | 10 mm | 50 µg/mL (≈ 127 µM) | 5 mm | > 100 µg/mL |  |  |  |  | 
9 | O=C(/C=C/c1ccc(Cl)cc1)c1cc(C(=O)/C=C/c2ccc(Cl)cc2)c(O)cc1O |  | 50 µg/mL (≈ 114 µM) | 15 mm | 25 µg/mL (≈ 56.9 µM) | 50 µg/mL (≈ 114 µM) | 10 mm | 10 mm | 50 µg/mL (≈ 114 µM) | 10 mm | 10 mm | 50 µg/mL (≈ 114 µM) | 10 mm | 50 µg/mL (≈ 114 µM) |  |  |  |  | 
10 | CC(=O)c1cc(C(C)=O)c(OC(=O)c2ccccc2[N+](=O)[O-])cc1OC(=O)c1ccccc1[N+](=O)[O-] |  | 50 µg/mL (≈ 102 µM) | < 5 mm |  |  | < 5 mm | < 5 mm |  | 5 mm | 10 mm |  | < 5 mm | > 100 µg/mL |  | inactive | inactive | inactive | inactive
11 | CCN(CC)c1ccc(/C=C/C(=O)c2cc(C(=O)/C=C/c3ccc(N(CC)CC)cc3)c(O)cc2O)cc1 |  | 50 µg/mL (≈ 97.5 µM) | 5 mm | > 100 µg/mL | > 100 µg/mL | 10 mm | 5 mm | > 100 µg/mL | 10 mm | 10 mm | 50 µg/mL (≈ 97.5 µM) | 5 mm | 50 µg/mL (≈ 97.5 µM) |  |  |  |  | 
12 | Cc1ccccc1/C=C/C(=O)c1cc(C(=O)/C=C/c2ccccc2C)c(O)cc1O | inactive | > 100 µg/mL | 5 mm | > 100 µg/mL |  | 5 mm | < 5 mm |  | < 5 mm | 5 mm | > 100 µg/mL | < 5 mm |  |  |  | inactive | inactive | 
13 | COc1ccccc1C(=O)Oc1cc(OC(=O)c2ccccc2OC)c(C(C)=O)cc1C(C)=O | inactive |  | 5 mm | > 100 µg/mL | > 100 µg/mL | < 5 mm | < 5 mm |  | < 5 mm | < 5 mm |  | 5 mm |  | inactive |  |  | inactive | inactive
14 | COc1cccc(-c2cc(=O)c3cc4c(=O)cc(-c5cccc(OC)c5)oc4cc3o2)c1 |  | 50 µg/mL (≈ 117 µM) | 10 mm | 50 µg/mL (≈ 117 µM) | 25 µg/mL (≈ 58.6 µM) | 15 mm | 15 mm | 25 µg/mL (≈ 58.6 µM) | 5 mm | 10 mm | 25 µg/mL (≈ 58.6 µM) | 15 mm | > 100 µg/mL |  |  |  |  | 
15 | COc1cc(OC)c(C(=O)/C=C/c2ccco2)cc1C(=O)/C=C/c1ccco1 | inactive | 50 µg/mL (≈ 132 µM) | < 5 mm |  | 50 µg/mL (≈ 132 µM) | 10 mm | 5 mm | > 100 µg/mL | < 5 mm | 10 mm | 50 µg/mL (≈ 132 µM) | 10 mm |  |  | inactive |  |  | 
16 | COc1ccc(/C=C/C(=O)c2cc(C(=O)/C=C/c3ccc(OC)c(OC)c3)c(OC)cc2OC)cc1OC |  | > 100 µg/mL | < 5 mm |  | > 100 µg/mL | 5 mm | < 5 mm |  | 10 mm | 5 mm | > 100 µg/mL | 5 mm | 50 µg/mL (≈ 96.4 µM) |  | inactive |  | inactive | 
17 | O=c1c(O)c(-c2ccc(O)c(O)c2)oc2cc(O)cc(O)c12 [QUERCETIN] |  | > 100 µg/mL |  |  |  |  |  |  |  |  | > 100 µg/mL |  | > 100 µg/mL |  |  |  |  | 
18 | CC(=O)c1cc(C(C)=O)c(OC(=O)c2ccc(Cl)cc2)cc1OC(=O)c1ccc(Cl)cc1 |  | > 100 µg/mL | < 5 mm |  |  | 5 mm | 5 mm | > 100 µg/mL | 5 mm | 5 mm | > 100 µg/mL | < 5 mm | > 100 µg/mL |  | inactive | inactive |  | 
19 | CC(=O)c1cc(C(C)=O)c(OC(=O)c2cccc(Cl)c2)cc1OC(=O)c1cccc(Cl)c1 | inactive | > 100 µg/mL | < 5 mm |  |  | < 5 mm | < 5 mm |  | < 5 mm | 5 mm |  | < 5 mm |  |  | inactive | inactive | inactive | inactive
20 | CC(=O)c1cc(C(C)=O)c(OC(=O)c2cccc([N+](=O)[O-])c2)cc1OC(=O)c1cccc([N+](=O)[O-])c1 | inactive | > 100 µg/mL | < 5 mm |  |  | 5 mm | < 5 mm |  | < 5 mm | 5 mm | > 100 µg/mL | < 5 mm |  |  | inactive | inactive | inactive | 
21 | O=C(O)c1cn(C2CC2)c2cc(N3CCNCC3)c(F)cc2c1=O [CIPROFLOXACIN] |  |  | > 20 mm |  |  |  |  |  | > 20 mm | > 20 mm |  |  |  |  |  |  |  | 
